This passage reports melting point results from a melting point compilation (Tetko et al.; mined from patent text by program, amines drawn as free bases though some values may be those of a salt).

With `Cc1cccc(C)c1N1CC(C)N(c2c(C)cccc2C)C1=N` (single isomer, unassigned; (+)), the melting point lay in the range of 99 to 101 °C.
The compound `COc1ccc(-c2cccc3c2OC(COS(=O)(=O)c2ccc(C)cc2)C3)c(OC)c1` (stereo not given) displayed a melting point of 120 to 123 °C.
On to `CC(NNC=NN)C(=O)O` (stereo not given), for which the melting point lay within 239 to 241 °C.
In the case of `COc1ccc(OCC(O)CO)cc1` (stereo not given), the melting point was in the range of 73 to 74 °C.
Consider `CCN(CC)c1ccc2c(c1)Oc1cc(OC(C)=O)c3ccccc3c1N2C(C)=O`, for which the melting point was in the range of 64 to 72 °C.
`CSc1nccc(Oc2ccc(NC(=O)c3cc(F)cc(N4CCOCC4)c3)c3ccccc23)n1` gave a melting point of 189 to 190 °C.
The compound `COc1ccc(N(C(=O)CN2C(=O)C(C)(Cc3n[nH]c4ccccc34)C(=O)N(c3cccnc3)c3ccccc32)C(C)C)cc1` (stereo not given) gave a melting point of 161 to 165 °C.
The result for `CC[C@H](C)[C@H](NC(=O)[C@@H]1CCCN1C(=O)OCc1ccccc1)C(=O)NCC(C)C` reads 87 to 88 °C.
Turning to `C[C@@H](Cn1ncc2ccc(O)c(Br)c21)NC(=O)OCc1ccccc1`, the melting point was found to be 40 °C.
`CN(C)C=Nc1[nH]nc(N2CCOCC2)c1C#N` registered a melting point of 182 to 183 °C.
For `COc1ccnc(CSc2nc3cc(OC(F)(F)C(F)Cl)ccc3[nH]2)c1` (stereo not given) the value was 120 °C.
For `Cc1nn(-c2ccc(Cl)cc2)cc1C(=O)N(CC(=O)O)c1ccc(OCC(C)(C)C)c(C#N)c1` the value was 186 to 189 °C; for `CCn1c2c(c3ccccc31)Cc1c(C(=O)OC)c(C(=O)OC)c(C)n1C2`, 202 to 203 °C; for `O=C1NC(=O)C(Cc2ccc(OCCON3C(=O)c4ccccc4C3=O)cc2)S1` (stereo not given), 146 to 147 °C.
Compound `CC(=O)N1C(=O)N(c2cc(Cl)cc(Cl)c2)C(=O)[C@]12CNC[C@H]2c1ccc(C#N)cc1` (relative stereo) returned a melting point of 125 °C.
`CC1NC(C#N)=C(C#N)NC1=O` (stereo not given) registered a melting point of 243 to 245 °C.
`Nc1nc(-c2cccnc2Cl)c(-c2cccnc2Cl)s1` returned a melting point of 273 to 274 °C.
In the case of `Cc1cn(-c2cc(NC(=O)c3ccc(C)c(Nc4nccc(-c5cccnc5)n4)c3)cc(C(F)(F)F)c2)cn1`, the melting point was 235 to 236 °C.
As for `CC(=O)Cn1c(CO)nc(C(C)C)c1Sc1cc(Cl)cc(Cl)c1`, the melting point is 165 to 167 °C.
Turning to `CCCCCCCCCCCCc1ccc(S(=O)(=O)Nc2nnc(C(=O)OCC)s2)cc1`, the melting point was in the range of 96 to 97 °C.
As for `Fc1ccc(-c2c[nH]cc2-c2ccc(F)cc2)cc1`, the melting point came out at 142 °C.
Turning to `CCCNc1cc(Nc2ccc(OC)cc2)ncn1`, the melting point fell in the range of 194 to 196 °C.
Compound `CCCCCCc1cnc(-c2ccc(OC[C@H]3CC[C@H](CCCC)CC3)cc2)nc1` showed a melting point of 99 °C.
`CCc1ccc2c(c1)C=Cc1sc(C)nc1C2c1cn(C)c(=O)[nH]c1=S` (stereo not given) had a melting point of 265 °C.
In turn, `COc1ccc(C2=NN(C3CCN(C(=O)CN4C(=O)CCC4=O)CC3)C(=O)C(C)(C)C2)c2c1OC(C)(C)C2` gave a melting point of 240 to 241 °C.
Regarding `CC(C)(C)c1ccc(CC(=O)CCCC2CCCCC2)cc1NC(=O)CC1c2ccccc2Oc2ccccc21`, the melting point lay within 146 to 147 °C.
In turn, `COc1cc(NCCN2CCC(Nc3nc4ccccc4n3Cc3ccc(F)cc3)CC2)ncn1` displayed a melting point of 146 °C.
`Cc1nnc(C=Cc2ccccc2OCC(O)CNC2CC2)s1` (stereo not given) displayed a melting point of 144 to 145 °C.
`CN(C)C(=O)Nc1snc(S(C)=O)c1C#N` (stereo not given): the melting point was in the range of 178 to 179 °C.
As to `O=C(c1ccc(CBr)cc1)c1ccc([N+](=O)[O-])cc1`, the melting point was 113 °C.
For `CCCC(C)(C)c1cc(N2CCC(C)C2=O)no1` (stereo not given) the value was 30 to 31 °C.
In turn, `Cc1cc(-c2nncc3c(C(C)(C)C)c(OCc4cccnc4)nn23)no1` registered a melting point of 139 to 141 °C.
Compound `c1ccc2c(c1)CCSO2` yielded a melting point of 119 to 120 °C.
Turning to `Oc1ccc2[nH]cc(C3CCN(CCCCc4c[nH]c5ccccc45)CC3)c2c1`, the melting point was in the range of 178 to 180 °C.
Compound `CC(C)Cn1c(CNC(=O)OC(C)(C)C)c(-c2ccc(Cl)cc2)c2cc(/C=C/C(=O)O)ccc2c1=O` registered a melting point of 147 to 149 °C.
Regarding `CN1CCC(C2c3cccc4c3N(CC4)c3ccccc3N2C(=O)OCC(Cl)(Cl)Cl)CC1` (stereo not given), the melting point is 160 to 162 °C.
`COc1ccc(-c2c(Cl)c(CN3CCN(C(C)=O)CC3)nc3sc4c(c23)CCN(Cc2ccccc2)C4)cc1OC` came in with a melting point of 183 to 184 °C.
Regarding `CS(=O)(=O)c1ccc(-n2nc(C(F)(F)F)cc2-c2ccc(-c3cncs3)cc2)cc1`, the melting point was in the range of 169 to 170 °C.
The result for `CC(C)C1(C)N=C(c2ncc(C3OCCCCO3)cc2C(=O)O)NC1=O` (stereo not given) reads 60 to 69 °C; that for `COc1cc(OCCOc2ccc3ccccc3c2)cc(OC)c1C(=O)C(=O)O`, 154 °C.
Take `O=C1c2ccccc2OC(CCCl)CN1Cc1ccccc1` (stereo not given): the melting point was 145 to 147 °C.
Regarding `Cc1nc(N)nc(Cl)c1C`, the melting point fell in the range of 212 to 220 °C.
In the case of `CCc1ccc(OCCc2c[nH]cn2)cc1`, the melting point stood at 178 °C.
`CCCCC1(CC)COP(=O)(Cc2ccc(N)cc2)OC1` (stereo not given) registered a melting point of 90 to 91 °C.
As for `COC(=O)c1cc(C(=O)CBr)cs1`, the melting point lay in the range of 112 to 114 °C.
Take `Cc1nc2ccc3c(c2o1)OC(CN1CC=C(c2c[nH]c4ccc(C#N)cc24)CC1)CO3` (stereo not given): the melting point was determined as 119 °C.
The compound `ClC(=NNc1ccccc1)c1ccc(Cl)cc1Cl` had a melting point of 88.5 to 89.5 °C.
For `Cc1c(C)c2c(c(C)c1NC(=O)CC(C)(C)C)C(N1CCCC1)C(C)(C)O2` (stereo not given) the value was 197 to 198 °C.
`Cc1cc(C(C)N(O)C(N)=O)ccc1Cl` (stereo not given) yielded a melting point of 129 to 131 °C.
For the compound `Oc1ncnc2cnc(NC3CC3)nc12`, the melting point is above 240 °C.
Turning to `CCC(=CC(CNC(=O)c1ccc(C)nc1)=NO)C(C)[N+](=O)[O-]` (stereo not given), the melting point lay in the range of 150 to 151 °C.
`CS(=O)(=O)c1ccccc1S(N)(=O)=O`: the melting point lay in the range of 249 to 250 °C.
Regarding `Cc1nc(-c2ccccc2Cl)sc1-c1ccccc1`, the melting point lay in the range of 63 to 65 °C.
The compound `N#Cc1cc(NCc2ccncc2)n(-c2c(Cl)cc(C(F)(F)F)cc2Cl)n1` had a melting point above 300 °C.
For `N#Cc1ccc2c(c1)c1cc(C#N)ccc1n2Cc1ccccc1`, the melting point fell in the range of 265 to 267 °C.
Compound `Cc1c(S(N)(=O)=O)c(C(F)(F)F)nn1C` had a melting point of 204 to 206 °C.
Regarding `CCNC1C=CC=C(Oc2ccc(F)cc2)C1(Cl)[N+](=O)[O-]` (stereo not given), the melting point lay in the range of 69 to 70 °C.
Turning to `CCOC(=O)N1C(=O)NC(C)=C(C(=O)OC)C1c1cccc(Cl)c1Cl` (stereo not given), the melting point lay in the range of 159 to 160 °C.
Turning to `Cc1ccc2c(Cl)nccc2c1[N+](=O)[O-]`, the melting point lay within 171 to 173 °C.
For `OC1N=C(c2ccccc2Cl)c2cc(Cl)ccc2-c2ncncc21` (stereo not given) the value was 105 to 117 °C; for `CCOC(=O)c1c(C(F)(F)F)nc(C(F)(F)F)c(C)c1O`, 23 to 24.5 °C.
For `CCOC(=O)c1cc(C=O)c2ccccn2c1=O`, the melting point is 179 to 181 °C.
On to `Cc1c(-c2ccccc2)[nH]c2ccc(Cl)cc2c1=O`, for which the melting point is 296 to 302 °C.
`CC(=O)Nc1c([N+](=O)[O-])cc(Br)c2c1CCN(C(C)=O)C2` gave a melting point of 171 °C.
The result for `COC(=O)CCCCOc1cc2c(c(Cl)c1Cl)C(=O)C(C)(C1CCCC1)C2` (stereo not given) reads 83 to 86 °C.
For `COc1ccccc1-n1c(=O)[nH]c2c(C(N)=O)nc(-c3cccc4[nH]cnc34)nc21` the value was 312 °C.
For `CCn1nc(-c2ccncc2)c(C(C)=O)c(Nc2ccc(C(=O)O)cc2)c1=O` the value was 252 to 253 °C.
As to `CC(=O)c1cc(C#N)c(=O)[nH]c1C=CN(C)C`, the melting point fell in the range of 267 to 270 °C.
As to `O=C(O)C1SCSCC12OCCO2` (stereo not given), the melting point lay in the range of 195 to 197 °C.
The result for `CCNC(=O)c1sc(Cl)cc1[Si](C)(C)C` reads 105 to 108 °C.
Compound `O=C1NCCc2c(-c3ccc(F)cc3F)[nH]c3cccc1c23` came in with a melting point of 196 to 197 °C.
For the compound `CC(C)N1CC(CO)CC2c3cccc4[nH]cc(c34)CC21` (stereo not given), the melting point is 192 to 194 °C.
`Fc1cc2c(cc1F)Sc1cc(F)c(F)cc1S2` had a melting point of 108 °C.
For `CCOC(=O)c1cc2cc(C)sc2[nH]1` the value was 107 to 109 °C; for `COC(=O)C(Cl)=NNc1ccc(F)cc1`, 110 to 113 °C.
For the compound `CCCCCCOc1ccc2c(c1)C=C(C=O)CO2`, the melting point is 36 to 38 °C.
Take `O=[N+]([O-])c1ccc(-c2nc3ccc(F)cc3s2)cc1`: the melting point lay within 201 to 202 °C.
For `CCCCC(CC)COC(=O)CSCc1cc(C(C)(C)C)c(O)c(C(C)(C)C)c1` (stereo not given) the value was 20 °C; for `Cc1ccc(S(=O)(=O)NC(C)(C)CO)cc1NC(=O)c1cnn2c(C(F)(F)F)cc(-c3ccc(C(F)(F)F)cc3)nc12`, 240 °C.
`COc1cc2c(cc1OC)C(C)(CCCCl)OCC2` (stereo not given) displayed a melting point of 77 to 79 °C.
In turn, `COc1ccc2c(c1)cc(C=O)n2C` had a melting point of 88 to 90 °C.
`CN1CCN(c2ccc(F)cc2C=C2CCCN(c3ccc(F)c(F)c3)C2=O)CC1` yielded a melting point of 168 to 170 °C.
The result for `N#CC1=C(C2CCC2)Nc2n[nH]cc2C1c1cccc(C#N)c1Br` (stereo not given) reads 278 °C; that for `COc1ccc2c(c1)OC=C(C(=O)N1CCN(C(c3ccc(F)cc3)c3ccc(F)cc3)CC1)O2`, 65 °C; that for `CCC(Cl)(CC)CC(=O)c1cc(C(C)(C)C)c(O)c(C(C)(C)C)c1`, 72 °C.
For `COc1ccccc1N1CCN(CCCCc2ccc(C3CCC(=O)N3)cc2)CC1` (stereo not given) the value was 130 to 131 °C; for `CCC1(CCOS(C)(=O)=O)C(=O)N2CC=CC(C(=O)OC)N2C1=O` (stereo not given), 94 to 96 °C; for `O=C1NC(=O)c2c(Br)c(Sc3ccc(Cl)cc3)c(Sc3ccc(Cl)cc3)c(Br)c21`, 310 to 315 °C.
Consider `Cc1ncncc1C(=O)Nc1ccc(-n2nc(C(F)(F)F)cc2C2CC2)cc1`, for which the melting point is 163 to 166 °C.
The compound `O=C(Nc1ccc2ccc(Cl)nc2n1)C1CC1` came in with a melting point of 250 °C.
